# From patent publication US9498483B2, “2,3,5-trisubstituted thiophene compounds and uses thereof” (priority 2010, dated 2016)
# Experiments:
# [1] = system: HCV replicon I389luc-ubi-neo/NS3-3′/ET in ET (Huh-lucubineo-ET) cells; assay: Replicon assay (Biological Example 2), luciferase readout; type: cell-based; conditions: Hepatitis C virus
# Procedure: A cell line, ET (Huh-lucubineo-ET) was used for screening of compounds for inhibiting HCV RNA dependent RNA polymerase. The ET cell line was stably transfected with RNA transcripts harboring a I389luc-ubi-neo/NS3-3′/ET; replicon with firefly luciferase-ubiquitin-neomycin phosphotransferase fusion protein and EMCV-IRES driven NS3-5B polyprotein containing the cell culture adaptive mutations (E1202G; T12801; K1846T) (Krieger at al, 2001 and unpublished). The ET cells were grown in DMEM (Dulbeco's Modified Eagle's Medium), supplemented with 10% fetal calf serum, 2 mM Glutamine, Penicillin (100 IU/mL)/Streptomycin (100 μg/mL), 1× nonessential amino acids, and 250 μg/mL G418 (“Geneticin”). Reagents were all available through Life Technologies (Bethesda, Md.). The cells were plated at 0.5-1.0×10^4 cells/well in the 96 well plates and incubated for 24 hrs before adding test compound. The compounds were added to the cells to achieve a final concentration of 0.1 nM to 50 μM and a final DMSO (dimethylsulfoxide) concentration of 0.5%. Luciferase activity was measured 48 hours later by adding a lysis buffer and the substrate (Catalog number Glo-lysis buffer E2661 and Bright-Glo luciferase system E2620 Promega, Madison, Wis.). Cells should not be too confluent during the assay. Percent inhibition of replication data was plotted relative to no compound control. To determine the EC50 (effective concentration at which 50% of the maximum inhibition was observed), a 10 point, 3-fold serial dilution for each compound was used, which spans a concentration range of […]. EC50 values were calculated by fitting % inhibition at each concentration to the following equation: % inhibition=100%/[(EC50/[I])^b+1] where b was Hill's coefficient.
# In other aspects the EC50 was equal to or less than 10 μM. In still other aspects the EC50 was equal to or less than 1 μM.
# HCV polymerase = molecular target: T1, HCV polymerase (Hepatitis C virus genotype 1b, UniProt Q9WMX2); assay: Polymerase assay of Biological Example 1 (IC50 values of Table 3); type: biochemical; conditions: IC50 values of Table 3, polymerase assay of Biological Example 1; read-out: NS5B-enzyme3
# T1 construct: (His)6 (C); made in house; host or cells: XL-1 cells (E. coli, by own knowledge)
# Description: A number of assays have been published to assess these activities. A general method that assesses the gross increase of HCV virus in culture was disclosed in U.S. Pat. No. 5,738,985 to Miles et al. In vitro assays have been reported in Ferrari et al. Jnl. of Vir., 73:1649-1654, 1999; Ishii et al., Hepatology, 29:1227-1235, 1999; Lohmann et al., Jnl of Bio. Chem., 274:10807-10815, 1999; and Yamashita et al., Jnl. of Bio. Chem., 273:15479-15486, 1998.
# WO 97/12033, filed on Sep. 27, 1996, by Emory University, listing C. Hagedorn and A. Reinoldus as inventors, which claims priority to U.S. Provisional Patent Application Ser. No. 60/004,383, filed on September 1995, described an HCV polymerase assay that can be used to evaluate the activity of the of the compounds described herein. Another HCV polymerase assay has been reported by Bartholomeusz, et al., Hepatitis C Virus (HCV) RNA polymerase assay using cloned HCV non-structural proteins; Antiviral Therapy 1996:1 (Supp 4) 18-24.
# [2] = ET cells, luciferase activity 48 hours after compound
SMILES,"IC50 [1, 2]",IC50 (HCV polymerase),IC50 ([1]; between 100 nM and 5.0 uM)
"CC(C)(C)C#Cc1cc(N2C(=O)[C@](C)(CCO)OC[C@H]2C2CCCCC2)c(C(=O)O)s1 [Compound 328, 3-[(2S,5R)-5-Cyclohexyl-2-(2-hydroxy-ethyl)-2-methyl-3-oxo-morpholin-4-yl]-5-(3,3-dimethyl-but-1-ynyl)-thiophene-2-carboxylic acid]",≤ 100 nM,6 nM,–
"CCc1ccc(S(=O)(=O)N2CC(=O)N(c3cc(C#CC(C)(C)C)sc3C(=O)O)[C@H](C3CCCCC3)C2)cc1 [Compound 256, 3-[(R)-2-Cyclohexyl-4-(4-ethyl-benzenesulfonyl)-6-oxo-piperazin-1-yl]-5-(3,3-dimethyl-but-1-ynyl)-thiophene-2-carboxylic acid]",≤ 100 nM,1 nM,–
"C[C@@H]1CC[C@H](C)N1c1ccc(S(=O)(=O)N2CC(=O)N(c3cc(-c4ccccc4)sc3C(=O)O)[C@H](C3CCCCC3)C2)cn1 [Compound 164, 3-{(R)-2-Cyclohexyl-4-[6-((2S,5R)-2,5-dimethyl-pyrrolidin-1-yl)-pyridine-3-sulfonyl]-6-oxo-piperazin-1-yl}-5-phenyl-thiophene-2-carboxylic acid]",≤ 100 nM,1 nM,–
"O=C(O)c1sc(-c2ccc(F)cc2)cc1N1C(=O)CN(S(=O)(=O)c2ccc(N3CC[C@@H](F)C3)nc2)C[C@H]1C1CCCCC1 [Compound 280, 3-{(R)-2-Cyclohexyl-4-[6-((R)-3-fluoro-pyrrolidin-1-yl)-pyridine-3-sulfonyl]-6-oxo-piperazin-1-yl}-5-(4-fluoro-phenyl)-thiophene-2-carboxylic acid]",≤ 100 nM,1 nM,–
"CC(=O)N1CCN(c2ccc(S(=O)(=O)N3CC(=O)N(c4cc(-c5ccccc5)sc4C(=O)O)C(C4CCCCC4)C3)cn2)CC1 (stereo not drawn) [Compound 89, 3-{4-[6-(4-Acetyl-piperazin-1-yl)-pyridine-3-sulfonyl]-2-cyclohexyl-6-oxo-piperazin-1-yl}-5-phenyl-thiophene-2-carboxylic acid]",≤ 100 nM,3 nM,–
"C[C@@H]1CN(c2ccc(S(=O)(=O)N3CC(=O)N(c4cc(-c5ccccc5)sc4C(=O)O)[C@H](C4CCCCC4)C3)cn2)CCN1 [Compound 140, 3-{(R)-2-Cyclohexyl-4-[6-((R)-3-methyl-piperazin-1-yl)-pyridine-3-sulfonyl]-6-oxo-piperazin-1-yl}-5-phenyl-thiophene-2-carboxylic acid]",≤ 100 nM,1 nM,–
"COc1ccccc1S(=O)(=O)N1CC(=O)N(c2cc(C#CC(C)(C)C)sc2C(=O)O)[C@H](C2CCCCC2)C1 [Compound 258, 3-[(R)-2-Cyclohexyl-4-(2-methoxy-benzenesulfonyl)-6-oxo-piperazin-1-yl]-5-(3,3-dimethyl-but-1-ynyl)-thiophene-2-carboxylic acid]",≤ 100 nM,7 nM,–
"O=C(COc1ccccc1)N[C@@H]1CC(=O)N(c2cc(-c3ccccc3)sc2C(=O)O)[C@@H](C2CCCCC2)C1 [Compound 22, 3-[(2R,4S)-2-Cyclohexyl-6-oxo-4-(2-phenoxy-acetylamino)-piperidin-1-yl]-5-phenyl-thiophene-2-carboxylic acid]",≥ 5000 nM,20 nM,–
"O=C(O)c1sc(-c2ccc(Cl)cc2)cc1N1C(=O)CN(S(=O)(=O)c2ccc(N3CCCC3)cc2)C[C@H]1C1CCCCC1 [Compound 231, 5-(4-Chloro-phenyl)-3-[(R)-2-cyclohexyl-6-oxo-4-(4-pyrrolidin-1-yl-benzenesulfonyl)-piperazin-1-yl]-thiophene-2-carboxylic acid]",≤ 100 nM,1 nM,–
"O=C(O)c1sc(-c2ccccc2)cc1N1C(=O)CN(S(=O)(=O)c2ccc(N3CCCCC3)nc2)CC1C1CCCCC1 (stereo not drawn) [Compound 84, 3-[2-Cyclohexyl-6-oxo-4-(3,4,5,6-tetrahydro-2H-[1,2′]bipyridinyl-5′-sulfonyl)-piperazin-1-yl]-5-phenyl-thiophene-2-carboxylic acid]",≤ 100 nM,4 nM,–
"Cc1ccc(-c2cc(N3C(=O)CN(S(=O)(=O)c4cn(C)c(C)n4)C[C@H]3C3CCCCC3)c(C(=O)O)s2)cc1 [Compound 298, 3-[(R)-2-Cyclohexyl-4-(1,2-dimethyl-1H-imidazole-4-sulfonyl)-6-oxo-piperazin-1-yl]-5-p-tolyl-thiophene-2-carboxylic acid]",≤ 100 nM,1 nM,–
"O=C(O)c1sc(-c2ccccc2F)cc1N1C(=O)CCCC1C1CCCCC1 (stereo not drawn) [Compound 67, 3-(2-Cyclohexyl-6-oxo-piperidin-1-yl)-5-(2-fluoro-phenyl)-thiophene-2-carboxylic acid]",–,183 nM,100 to 5000 nM
"Cc1ccc(-c2cc(N3C(=O)CN(S(=O)(=O)c4ccc(C)nc4)C[C@H]3C3CCCCC3)c(C(=O)O)s2)cc1 [Compound 302, 3-[(R)-2-Cyclohexyl-4-(6-methyl-pyridine-3-sulfonyl)-6-oxo-piperazin-1-yl]-5-p-tolyl-thiophene-2-carboxylic acid]",≤ 100 nM,3 nM,–
"Cc1ccc(-c2cc(N3C(=O)CN(S(=O)(=O)c4ccc(N5CCCC5)nc4)C[C@H]3C3CCCCC3)c(C(=O)O)s2)cc1 [Compound 272, 3-[(R)-2-Cyclohexyl-6-oxo-4-(6-pyrrolidin-1-yl-pyridine-3-sulfonyl)-piperazin-1-yl]-5-p-tolyl-thiophene-2-carboxylic acid]",≤ 100 nM,1 nM,–
"O=C(O)c1sc(-c2ccccc2)cc1N1C(=O)CNC[C@H]1C1CCCCC1 [Compound 15, 3-((R)-2-Cyclohexyl-6-oxo-piperazin-1-yl)-5-phenyl-thiophene-2-carboxylic acid]",≥ 5000 nM,73.5 nM,–
"CN1CCN(C(=O)c2ccc(-c3ccc(S(=O)(=O)N4CC(=O)N(c5cc(-c6ccccc6)sc5C(=O)O)[C@H](C5CCCCC5)C4)cn3)cc2)CC1 [Compound 202, 3-((R)-2-Cyclohexyl-4-{6-[4-(4-methyl-piperazine-1-carbonyl)-phenyl]-pyridine-3-sulfonyl)-6-oxo-piperazin-1-yl)-5-phenyl-thiophene-2-carboxylic acid]",≤ 100 nM,1 nM,–
"N[C@H]1CC(=O)N(c2cc(-c3ccccc3)sc2C(=O)O)[C@@H](C2CCCCC2)C1 [Compound 23, 3-((2R,4R)-4-Amino-2-cyclohexyl-6-oxo-piperidin-1-yl)-5-phenyl-thiophene-2-carboxylic acid]",≥ 5000 nM,245 nM,–
"COc1cccc(S(=O)(=O)N2CC(=O)N(c3cc(-c4ccccc4)sc3C(=O)O)[C@H](C3CCCCC3)C2)c1 [Compound 107, 3-[(R)-2-Cyclohexyl-4-(3-methoxy-benzenesulfonyl)-6-oxo-piperazin-1-yl]-5-phenyl-thiophene-2-carboxylic acid]",–,< 1 nM,100 to 5000 nM
"CS(=O)(=O)N1CC(=O)N(c2cc(-c3ccccc3)sc2C(=O)O)C(C2CCCCC2)C1 (stereo not drawn) [Compound 26, 3-(2-Cyclohexyl-4-methanesulfonyl-6-oxo-piperazin-1-yl)-5-phenyl-thiophene-2-carboxylic acid]",–,67 nM,100 to 5000 nM
"COc1cccc(S(=O)(=O)N2CC(=O)N(c3cc(C#CC(C)(C)C)sc3C(=O)O)[C@H](C3CCCCC3)C2)c1 [Compound 257, 3-[(R)-2-Cyclohexyl-4-(3-methoxy-benzenesulfonyl)-6-oxo-piperazin-1-yl]-5-(3,3-dimethyl-but-1-ynyl)-thiophene-2-carboxylic acid]",≤ 100 nM,2 nM,–
"O=C(O)c1sc(-c2ccc(Cl)cc2)cc1N1C(=O)CN(S(=O)(=O)c2ccc(N3CCCCC3)cc2)C[C@H]1C1CCCCC1 [Compound 233, 5-(4-Chloro-phenyl)-3-[(R)-2-cyclohexyl-6-oxo-4-(4-piperidin-1-yl-benzenesulfonyl)-piperazin-1-yl]-thiophene-2-carboxylic acid]",≤ 100 nM,2 nM,–
